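Exposure lasted 48 hours, with cells grown in 96-well plates and compounds tested at five concentrations. GI50 is the concentration that inhibits growth by half.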 The source made the active and inactive calls. No stated cut-off is given here; in the data, active = GI50 up to about 1.1 µM and inactive = higher. Where a SMILES comes first, the peptide text is derived from it. The star is where a group is joined. Boc = CC(C)(C)OC(=O)*
Columns and labels:
Assay in all cases: NCI-60 cell line screen, 48 h
[1] = system: A549
[2] = system: MDA-N
[3] = system: MOLT-4
[4] = system: SF-268
[5] = system: U-251
[6] = system: LOX IMVI
[7] = system: ACHN
[8] = system: NCI-H460
[9] = system: BT-549
[10] = system: OVCAR-4
[11] = system: M14
[12] = system: UACC-257
[13] = system: SK-MEL-28
[14] = system: RPMI-8226
[15] = system: OVCAR-8
[16] = system: A498
[17] = system: COLO 205
[18] = system: PC-3
[19] = system: SN12C
[20] = system: SNB-19

Measured: GI50

O=C(O)CSCc1cc2c(O)c(c1)Cc1cc(CSCC(=O)O)cc(c1O)Cc1cc(CSCC(=O)O)cc(c1O)Cc1cc(CSCC(=O)O)cc(c1O)C2
inactive: [1] > 100 µM | [2] > 100 µM | [3] > 100 µM | [4] > 100 µM | [5] > 100 µM | [6] > 100 µM | [7] > 100 µM | [8] > 100 µM | [9] 29 µM | [10] > 100 µM | [11] > 100 µM | [12] > 100 µM | [13] > 100 µM | [14] > 100 µM | [15] > 100 µM | [16] > 100 µM | [17] > 100 µM | [18] > 100 µM | [19] > 100 µM | [20] > 100 µM

CC(C)(C)c1ccc2c(c1)C#Cc1cc3c(cc1OCCCO2)C#Cc1cc(C(C)(C)C)ccc1OCCCO3
inactive: [1] > 100 µM | [2] > 100 µM | [3] > 100 µM | [4] > 100 µM | [5] > 100 µM | [6] > 100 µM | [7] > 100 µM | [8] > 100 µM | [9] 1.72 µM | [10] > 100 µM | [11] > 100 µM | [12] > 100 µM | [13] > 100 µM | [14] > 100 µM | [15] > 100 µM | [16] > 100 µM | [17] > 100 µM | [18] > 100 µM | [19] > 100 µM | [20] > 100 µM

O=c1[nH]c(=O)n([C@H]2C[C@H](O)[C@@H](CO)O2)cc1Br [BROXURIDINE]
inactive: [1] > 100 µM | [2] > 100 µM | [3] > 100 µM | [4] > 100 µM | [5] > 100 µM | [6] > 97.1 µM | [7] > 100 µM | [8] > 100 µM | [9] > 100 µM | [10] > 100 µM | [11] > 86.7 µM | [12] > 100 µM | [13] > 86.5 µM | [14] 49.9 µM | [15] > 100 µM | [16] > 100 µM | [17] > 100 µM | [18] > 100 µM | [19] > 100 µM | [20] > 100 µM

CCOC(=O)C(N)CSC(=O)NC (stereo not given)
inactive: [1] 327 µM | [2] 39.8 µM | [3] 55.1 µM | [4] 115 µM | [5] 121 µM | [6] 40.4 µM | [7] 184 µM | [8] 92 µM | [9] 121 µM | [10] 219 µM | [11] 67.9 µM | [12] 208 µM | [13] 136 µM | [14] 20.1 µM | [15] 97.7 µM | [16] 236 µM | [17] 78.5 µM | [18] 132 µM | [19] 71.6 µM | [20] 251 µM

CCc1nc2ccc(C(F)(F)F)cc2[nH]c1=O
inactive: [1] > 100 µM | [2] > 100 µM | [3] > 100 µM | [4] > 100 µM | [5] > 100 µM | [6] > 100 µM | [7] > 100 µM | [8] > 100 µM | [9] > 100 µM | [10] 52.2 µM | [11] > 100 µM | [12] > 100 µM | [13] > 100 µM | [14] > 100 µM | [15] > 100 µM | [16] 94.4 µM | [17] > 100 µM | [18] > 100 µM | [19] > 100 µM | [20] > 100 µM

COC(=O)CNC(=O)C(Cc1ccccc1)NC(=O)C(CCSC)NC(=O)C(Cc1ccc(O)cc1)NC(=O)OC(C)(C)C (stereo not given) (Boc-YMFG-OMe; configuration not given here)
inactive: [1] > 100 µM | [2] 33.3 µM | [3] 17.5 µM | [4] 29.7 µM | [5] 41.6 µM | [6] 18.5 µM | [7] > 100 µM | [8] > 100 µM | [9] 35.3 µM | [10] > 100 µM | [11] > 100 µM | [12] 19.1 µM | [13] 18.2 µM | [14] 22.3 µM | [15] 39.9 µM | [16] > 100 µM | [17] 79.3 µM | [18] > 100 µM | [19] 45.3 µM | [20] 37.8 µM

Cc1cc(O)c(O)c(Oc2cc(C)cc(O)c2O)c1
inactive: [1] 73.1 µM | [2] 18.7 µM | [3] 10 µM | [4] 17.8 µM | [5] 9.79 µM | [6] 4.57 µM | [7] 11.6 µM | [8] 11.1 µM | [9] 20.1 µM | [10] 13.4 µM | [11] 14.3 µM | [12] 6.07 µM | [13] 32.2 µM | [14] 31.1 µM | [15] 16.2 µM | [16] > 100 µM | [17] 20.1 µM | [18] 21.9 µM | [19] 13.2 µM | [20] 35.9 µM

COc1ccc(/C=C2\CCCCCC2=O)cc1
inactive: [1] > 100 µM | [2] > 100 µM | [3] > 100 µM | [4] > 100 µM | [5] > 100 µM | [6] > 100 µM | [7] > 100 µM | [8] > 100 µM | [9] > 100 µM | [10] > 100 µM | [11] > 100 µM | [12] > 100 µM | [13] > 100 µM | [14] > 100 µM | [15] > 100 µM | [16] > 100 µM | [17] > 100 µM | [18] > 100 µM | [19] > 100 µM | [20] > 100 µM

O=C(O)CC(CC(=O)O)C(=O)O [TRICARBALLYLIC ACID]
inactive: [1] > 100 µM | [2] > 100 µM | [3] > 100 µM | [4] > 100 µM | [5] > 100 µM | [6] > 100 µM | [7] > 100 µM | [8] > 100 µM | [9] > 100 µM | [10] > 100 µM | [11] > 100 µM | [12] > 100 µM | [13] > 100 µM | [14] > 100 µM | [15] > 100 µM | [16] > 100 µM | [17] > 100 µM | [18] > 100 µM | [19] > 100 µM | [20] > 100 µM

CN(C)N1C(=O)c2ccccc2NC1c1ccccc1 (stereo not given)
inactive: [1] > 100 µM | [2] > 100 µM | [3] > 100 µM | [4] > 100 µM | [5] > 100 µM | [6] > 100 µM | [7] > 100 µM | [8] > 100 µM | [9] > 100 µM | [10] > 100 µM | [11] > 100 µM | [12] > 100 µM | [13] > 100 µM | [14] > 100 µM | [15] > 100 µM | [16] > 100 µM | [17] > 100 µM | [18] > 100 µM | [19] > 100 µM | [20] > 100 µM
